# Results: patent publication US20240100146A1 (priority 2022, published 2024)
# System: MHV1
# Design: species or system A/J mice
# Details: mouse, in vivo
smiles,measurement,value
CC(=O)N[C@H]1[C@H]([C@H](O)[C@H](O)CO)OC(C(=O)O)=C[C@@H]1N=C(N)N [zanamivir],% protection (survival) against lethal MHV1 challenge,0%
